Reference: ChEMBL document CHEMBL3632472, “Bastadins, brominated-tyrosine derivatives, suppress accumulation of cholesterol ester in macrophages” (Bioorg Med Chem Lett, 2015)
Calls of active or inactive are those of the source. The calls are words filed in the database; no cut-off is given here.

Tests used:
[1] = target: T1, Sterol O-acyltransferase 1 (Homo sapiens) (UniProt P35610); experiment: Inhibition of human ACAT1 expressed in CHO cells at 5 uM using [14C]oleoyl-CoA as substrate; type: cell-based
T1 sequence (whole entry): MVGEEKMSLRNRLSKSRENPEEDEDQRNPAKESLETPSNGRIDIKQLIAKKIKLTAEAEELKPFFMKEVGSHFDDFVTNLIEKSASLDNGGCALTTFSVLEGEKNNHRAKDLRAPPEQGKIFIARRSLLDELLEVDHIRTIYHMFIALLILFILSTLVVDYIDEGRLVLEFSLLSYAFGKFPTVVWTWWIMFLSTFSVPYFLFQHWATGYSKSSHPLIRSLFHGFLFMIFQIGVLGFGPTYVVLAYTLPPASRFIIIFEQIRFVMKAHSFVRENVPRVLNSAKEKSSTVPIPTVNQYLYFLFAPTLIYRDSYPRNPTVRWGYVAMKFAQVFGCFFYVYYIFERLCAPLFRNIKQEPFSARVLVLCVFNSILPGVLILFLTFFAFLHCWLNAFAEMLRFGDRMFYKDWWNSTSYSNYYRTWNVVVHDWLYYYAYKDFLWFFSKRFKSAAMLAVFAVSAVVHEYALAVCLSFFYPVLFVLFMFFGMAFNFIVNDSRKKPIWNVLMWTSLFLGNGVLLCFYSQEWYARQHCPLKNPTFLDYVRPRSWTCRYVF

[2] = target: T1, Sterol O-acyltransferase 1 (Homo sapiens); experiment: Inhibition of human ACAT1 expressed in CHO cells assessed as inhibition of [3H]cholesterol ester accumulation at 5 uM in presence of 0.1 mM [3H]oleate-conjugated BSA; type: cell-based
[3] = target: T2, Sterol O-acyltransferase 2 (Homo sapiens) (UniProt O75908); experiment: Inhibition of human ACAT2 expressed in CHO cells assessed as inhibition of [3H]cholesterol ester accumulation at 5 uM in presence of 0.1 mM [3H]oleate-conjugated BSA; type: cell-based
T2 sequence (whole entry): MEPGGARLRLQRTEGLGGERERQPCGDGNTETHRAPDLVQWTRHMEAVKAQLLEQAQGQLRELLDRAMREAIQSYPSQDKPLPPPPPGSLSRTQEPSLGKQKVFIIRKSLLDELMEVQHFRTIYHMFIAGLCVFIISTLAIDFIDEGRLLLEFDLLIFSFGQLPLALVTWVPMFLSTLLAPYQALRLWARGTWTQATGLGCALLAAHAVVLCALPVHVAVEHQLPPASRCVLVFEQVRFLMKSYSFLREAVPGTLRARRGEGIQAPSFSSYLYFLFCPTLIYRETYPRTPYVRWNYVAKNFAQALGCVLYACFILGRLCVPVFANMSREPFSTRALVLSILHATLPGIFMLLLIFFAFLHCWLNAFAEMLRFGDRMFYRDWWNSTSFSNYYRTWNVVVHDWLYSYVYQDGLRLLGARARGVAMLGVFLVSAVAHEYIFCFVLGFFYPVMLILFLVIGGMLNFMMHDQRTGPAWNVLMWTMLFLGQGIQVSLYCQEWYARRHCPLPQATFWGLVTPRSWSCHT

[4] = Cytotoxicity against human MDM cells at 5 uM after 24 hrs; type: cell-based
[5] = target: T2, Sterol O-acyltransferase 2 (Homo sapiens); experiment: Inhibition of human ACAT2 expressed in CHO cells at 5 uM using [14C]oleoyl-CoA as substrate; type: cell-based
MDM [6] = experiment: Inhibition of ACAT in human MDM cells assessed as inhibition of foam cell formation by measuring acetylated LDL-induced [3H]cholesterol ester accumulation at 5 uM after 24 hrs in presence of 0.1 mM [3H]oleate; type: cell-based
CHO = experiment: Cytotoxicity against CHO cells at 5 uM; type: cell-based, Cricetulus griseus; conditions: chinese hamster
MDM [7] = experiment: Effect on SR-BI expression in human MDM cells at 5 uM for 24 hrs by western blot analysis; type: functional, cell-based
MDM [8] = experiment: Effect on phospholipid accumulation in human MDM cells at 5 uM after 24 hrs in presence of 50 ug/ml acetylated LDL and 0.1 mM [3H]oleate; type: functional, cell-based
MDM [9] = experiment: Inhibition of human ACAT in MDM cells microsomal fraction assessed as inhibition of cholesteryl [14C]oleate formation at 5 uM for 15 mins in presence of [14C]oleoyl-CoA; type: cell-based
MDM [10] = experiment: Effect on ACAT2 expression in human MDM cells at 5 uM for 24 hrs by western blot analysis; type: functional, cell-based
MDM [11] = experiment: Effect on SR-A expression in human MDM cells at 5 uM for 24 hrs by western blot analysis; type: functional, cell-based
MDM [12] = experiment: Effect on CD36 expression in human MDM cells at 5 uM for 24 hrs by western blot analysis; type: functional, cell-based
MDM [13] = experiment: Effect on ACAT1 expression in human MDM cells at 5 uM for 24 hrs by western blot analysis; type: functional, cell-based
MDM [14] = experiment: Effect on triacylglycerol accumulation in human MDM cells at 5 uM after 24 hrs in presence of 50 ug/ml acetylated LDL and 0.1 mM [3H]oleate; type: functional, cell-based

Row | SMILES | inhibition [1] | inhibition [2] | inhibition [3] | Activity [4] | inhibition [5] | inhibition (MDM [6]) [%] | Activity (CHO) | Activity (MDM [7]) | Activity (MDM [8]) | inhibition (MDM [9]) | Activity (MDM [10]) | Activity (MDM [11]) | Activity (MDM [12]) | Activity (MDM [13]) | Activity (MDM [14])
1 | O=C1NCCc2ccc(O)c(c2)Oc2ccc(cc2Br)CCNC(=O)/C(=N/O)Cc2cc(Br)c(O)c(c2)Oc2c(Br)cc(cc2Br)C/C1=N\O | inactive | inactive | inactive | Non-toxic | inactive | 80 | – | – | – | – | – | – | – | – | –
2 | O=C1N/C=C/c2ccc(c(Br)c2)Oc2cc(cc(Br)c2O)CCNC(=O)/C(=N/O)Cc2cc(Br)c(c(Br)c2)Oc2cc(cc(Br)c2O)C/C1=N\O [BASTADIN 4] | – | inactive | inactive | Non-toxic | – | 36 | – | – | – | – | – | – | – | – | –
3 | O=C1NCCc2cc(Br)c(O)c(c2)Oc2ccc(cc2Br)CCNC(=O)/C(=N\O)Cc2cc(Br)c(O)c(c2)Oc2c(Br)cc(cc2Br)C/C1=N/O [BASTADIN 5] | – | inactive | inactive | Non-toxic | – | 58 | – | – | – | – | – | – | – | – | –
4 | O=C1NCCc2cc(Br)c(O)c(c2)Oc2c(Br)cc(cc2Br)CCNC(=O)/C(=N/O)Cc2cc(Br)c(O)c(c2)Oc2c(Br)cc(cc2Br)C/C1=N\O [BASTADIN 6] | 82% | 86% | 87% | Non-toxic | 89% | 96 | Non-toxic | inactive | inactive | Active | inactive | inactive | inactive | inactive | inactive
5 | O=C1N/C=C/c2ccc(c(Br)c2)Oc2cc(cc(Br)c2O)CCNC(=O)/C(=N/O)Cc2ccc(c(Br)c2)Oc2cc(cc(Br)c2O)C/C1=N\O [BASTADIN 7] | – | inactive | inactive | Non-toxic | – | 39 | – | – | – | – | – | – | – | – | –
6 | O=C1NCCc2cc(Br)c(O)c(c2)Oc2c(Br)cc(cc2Br)[C@H](O)CNC(=O)/C(=N/O)Cc2cc(Br)c(O)c(c2)Oc2ccc(cc2Br)C/C1=N\O [BASTADIN 12] | inactive | inactive | inactive | Non-toxic | inactive | 80 | – | – | – | – | – | – | – | – | –
7 | O=C1NCCc2ccc(O)c(c2)Oc2c(Br)cc(cc2Br)CCNC(=O)/C(=N/O)Cc2cc(Br)c(O)c(c2)Oc2c(Br)cc(cc2Br)C/C1=N\O [BASTADIN 16] | 61% | 57% | 61% | Non-toxic | 58% | 88 | Non-toxic | – | inactive | – | – | – | – | – | inactive
8 | O=C(NCCc1ccc(O)c(Br)c1)/C(Cc1ccc(O)c(Br)c1)=N\O [HEMIBASTADIN 1] | – | inactive | inactive | Non-toxic | – | 5 | – | – | – | – | – | – | – | – | –
